Data as given in paper PMC8124365 (International Journal of Molecular Sciences, 2021).
Where two headings read alike, the source gives them in different places.

Key:
[1] = test system: LNCaP; conditions: cited from earlier work; for Kidney Uptake / Tumour Uptake: BALB/c nu/nu (LNCaP), ref Kelly et al., 2018 [32]
[2] = test system: PC-3 PIP; parameters: method as in Banerjee et al., 2019 [3]; conditions: 111 MBq; NOD-SCID gamma (PC-3 PIP); median survival; ref Banerjee et al., 2019 [3]; cited from earlier work
[3] = test system: LNCaP; parameters: method as in Benesova et al., 2015 [31]; conditions: BALB/c nu/nu (LNCaP), ref Benesova et al., 2015 [31], cited from earlier work
[4] = test system: tumour; parameters: method as in Fendler et al. [36]; conditions: after 4 days; ref Fendler et al. [36]; cited from earlier work
[5] = test system: PC-3 PIP; parameters: method as in Umbricht et al., 2018 [60]; conditions: Athymic nude BALB/c (PC-3 PIP), median survival, ref Umbricht et al., 2018 [60], cited from earlier work
[6] = test system: RM1-PGLS; parameters: method as in Fendler et al., 2017 [36]; conditions: C57BL/6 (RM1-PGLS), median survival, ref Fendler et al., 2017 [36], cited from earlier work
[7] = test system: PC-3 PIP; parameters: method as in Benesova et al., 2018 [33]; conditions: Athymic nude BALB/c (PC-3 PIP), ref Benesova et al., 2018 [33], cited from earlier work
[8] = test system: LNCaP; parameters: method as in Kuo et al., 2018 [30]; conditions: 18.5 MBq; NOD rag gamma (LNCaP); median survival; ref Kuo et al., 2018 [30]; cited from earlier work
[9] = test system: LNCaP; conditions: cited from earlier work; for Kidney Uptake / Tumour Uptake: NOD-SCID gamma (LNCaP), ref Kuo et al., 2018 [30]
[10] = test system: C4-2 xenografts; assay: Biodistribution of radioligand in mice with C4-2 xenografts; format: in vivo, Hsd:Athymic Nude-Foxn1^nu mice; conditions: free ^212Pb control
From the text: For the biodistribution and therapy studies, 105 male Hsd:Athymic Nude-Foxn1^nu mice bred at the Department of Comparative Medicine at the Norwegian Radium Hospital (Oslo University Hospital, Oslo, Norway) were used. For the toxicity study, 13 male BALB/cJRj mice from Janvier Labs (Le Genest-Saint-Isle, France) were used. The studies were approved by the Institutional Committee on Research Animal Care (Department of Comparative Medicine, Oslo University Hospital) and the Norwegian Food Safety Authority (Brumunddal, Norway, approval: FOTS ID 22197, 20/49651). All procedures and experiments involving animals in this study were performed in accordance with the Interdisciplinary Principles and Guidelines for the Use of Animals in Research, Marketing and Education (New York Academy of Sciences, New York, USA) and the EU Directive 2010/63/EU for animal experiments as well as the ARRIVE guidelines. The animals were maintained under specific pathogen-free conditions with ad libitum access to food and water. Cages (1–5 mice per cage) were housed in a scantainer, which was maintained at constant temperature (24 °C) and humidity (60%). The mice were around 4–6 weeks in age and weighed 25–35 g at the start of the study.
Mice were inoculated subcutaneously in both flanks with 10 × 10^6 C4-2 cells in supplement-free RPMI1640 medium mixed 1:1 with Matrigel Matrix (Corning, NY, USA) in a total volume of 200 µL. In one of the biodistribution experiments, mice were inoculated with 5 × 10^6 PC-3 cells (200 µL, 1:1 medium:Matrigel Matrix) as a negative control. The tumours were allowed to grow to reach a volume of 300–1500 mm^3 for the biodistribution studies and a volume of 30–300 mm^3 for the therapy studies, and tumour-bearing mice were randomised based on tumour size before radioligand injection. Mice were monitored 2–3 times per week for changes in body weight and tumour size and were euthanised by cervical dislocation if any of the following humane end points were reached: >20% weight loss from initial body weight, rapid weight loss (>10% within 2 days), tumours exceed 20 mm in any direction, ulcerate or interfere with normal behaviour, or any signs of severe sickness or discomfort.
At various time points after injection (from 15 min up to 48 h), organs/tissues were harvested, and radioligand uptake was calculated as a percentage of injected dose per gram tissue (%ID/g). Effective half-lives in selected organs were obtained by fitting monoexponential functions to the biodistribution data (Bq/g vs. time), normalised to 1 MBq/kg, (1) y(t)=a×e^−ln(2)×t/Teffective
The biological half-lives were then calculated by the following formula:(2) 1/Teffective=1/Tbiological+1/Tphysical

[11] = test system: C4-2; conditions: cited from earlier work; for TI: NOD-SCID gamma (C4-2), median survival, ref Stuparu et al., 2020 [59]; for Toxicity in treated mice: radiosensitive model, ref [59]
[12] = test system: RM1-PGLS; conditions: cited from earlier work
[13] = test system: subcutaneous tumour models; conditions: 0.02–0.1 MBq; ref [59],[61]; cited from earlier work

O=C([O-])CN1CCN(CC(=O)[O-])CCN(CC(=O)NCC2CCC(C(=O)N[C@@H](Cc3ccc4ccccc4c3)C(=O)NCCCC[C@H](NC(=O)N[C@@H](CCC(=O)O)C(=O)O)C(=O)O)CC2)CCN(CC(=O)[O-])CC1.[177Lu+3] (stereo partly drawn) [^177Lu-PSMA-617]
Kidney Uptake ([1]; 4h): 14.1 ± 3.1 %ID/G
Tumour Uptake ([1]; 4h): 14.4 ± 1.1 %ID/G
Kidney Uptake ([1]; 24h): 0.7 ± 0.1 %ID/G
Tumour Uptake ([1]; 24h): 4.6 ± 0.6 %ID/G
Tumour level ([1]; after 4 days, ref Kelly et al. [32]): 3.5 %ID/g
TI [2]: 3.9
Kidney Uptake ([3]; 1h): 137.2 ± 77.8 %ID/G
Tumour Uptake ([3]; 1h): 11.2 ± 4.2 %ID/G
Kidney Uptake ([3]; 24h): 2.1 ± 1.4 %ID/G
Tumour Uptake ([3]; 24h): 10.6 ± 4.5 %ID/G
Tumour level [4]: 0.7 %ID/g
TI ([5]; 2 MBq (2 MBq/nmol)): 1.1
TI ([5]; 5 MBq (5 MBq/nmol)): 1.8
TI ([6]; 30 MBq (62 MBq/nmol)): 1.4
TI ([6]; 60 MBq (62 MBq/nmol)): 1.9
TI ([6]; 120 MBq (62 MBq/nmol)): 1.9
Kidney Uptake ([7]; 1h): 9.8 ± 1.4 %ID/G
Tumour Uptake ([7]; 1h): 44.2 ± 12.0 %ID/G
Kidney Uptake ([7]; 4h): 3.4 ± 3.2 %ID/G
Tumour Uptake ([7]; 4h): 56.0 ± 8.0 %ID/G
Kidney Uptake ([7]; 24h): 0.8 ± 0.9 %ID/G
Tumour Uptake ([7]; 24h): 37.3 ± 5.8 %ID/G
TI [8]: 4.1
Kidney Uptake ([9]; 1h): 97.2 ± 19.4 %ID/G
Tumour Uptake ([9]; 1h): 15.1 ± 5.6 %ID/G
Kidney Uptake ([9]; 4h): 26.6 ± 19.1 %ID/G
Tumour Uptake ([9]; 4h): 14.5 ± 1.8 %ID/G
Kidney Uptake ([9]; 24h): 0.6 ± 0.2 %ID/G
Tumour Uptake ([9]; 24h): 10.9 ± 3.3 %ID/G
Tumour level ([9]; after 5 days, ref Kuo et al. [30]): 7 %ID/g

[212Pb+2] [^212Pb^2+]
Uptake in kidneys ([10]; 1–8 h post injection): 34.2–49.0 %ID/g
Uptake in liver ([10]; 1–8 h post injection): 8.3–9.1 %ID/g
Uptake in bones ([10]; at 1–4 h): 7.3–10.4 %ID/g
Uptake in bones ([10]; at 8 h): 1.0–2.6 %ID/g

O=C([O-])CC[C@H](NC(=O)N[C@@H](CCCCNC(=O)[C@H](Cc1ccc2ccccc2c1)NC(=O)[C@H]1CC[C@H](CNC(=O)CN2CCN(CC(=O)[O-])CCN(CC(=O)[O-])CCN(CC(=O)[O-])CC2)CC1)C(=O)[O-])C(=O)[O-].[225Ac].[H+].[H+].[H+] [^225Ac-PSMA-617]
TI ([11]; 0.02 MBq (0.13 MBq/nmol)): 3.6
Toxicity in treated mice ([11]; 0.02 and 0.04 MBq): transient weight loss
TI ([11]; 0.04 MBq (0.13 MBq/nmol)): 6.7
TI ([11]; 0.10 MBq (0.13 MBq/nmol)): 4.2
Toxicity in treated mice ([11]; 0.10 MBq): severe weight loss
TI ([12]; 0.03 MBq (0.13 MBq/nmol), Athymic nude mice (RM1-PGLS), median survival, ref Czernin et al., 2020 [61]): 1.1
Toxicity in treated mice ([12]; 0.03 MBq, more radioresistant model, ref [61]): no signs of toxicity
Therapeutic Index Range [13]: 1.1–6.7
